Patent publication US8981111B2 (priority 2008, dated 2015)

Assay: log P (HPLC/MS data of the preparation examples)
[1] = method [b]: LC-MS at pH 2.7, 0.1% formic acid in water / acetonitrile, linear gradient 10% to 95% acetonitrile
[2] = LC-MS, method [b]: pH 2.7 with 0.1% formic acid in water and acetonitrile, linear gradient 10% to 95% acetonitrile
[3] = HPLC (LC-MS) method [b]: pH 2.7, 0.1% formic acid in water and acetonitrile, linear gradient 10% to 95% acetonitrile, EEC directive 79/831 Annex V.A8

Cn1c(C(=NOCc2cccc(NC(=O)CCc3ccccc3)n2)c2ccccc2)nnc1C(F)(F)F [Example 201]
log p [1]: 3.85^[b]

CC(C)CC(=O)Nc1ccnc(CON=C(c2ccccc2)c2cnnn2C)n1 [Example 82]
log p [2]: 2.77^[b]

Cn1cncc1C(=NOCc1nccc(NC(=O)COc2ccccc2)n1)c1ccccc1 [Example 132]
log p [2]: 1.86^[b]

Cn1cncc1C(=NO)c1ccccc1 [N-hydroxy-1-(1-methyl-1H-imidazol-5-yl)-1-phenylmethanimine]
chromatographic logP (HCOOH (formic acid)): 0.41

Cc1nc(C(=NOCc2cccc(N3C(=O)c4ccccc4C3=O)n2)c2ccccc2)cs1 (single isomer, unassigned) [Example 170]
log p [1]: 3.55^[b]

Cn1ncnc1C(=NOCc1csc(N)n1)c1cccs1 [Example 398]
log p [2]: 0.92^[b]

Cn1cncc1C(=NOCc1csc(NC(=O)COc2ccccc2)n1)c1ccccc1 [Example 127]
log p [2]: 2.01^[b]

Cn1nncc1C(=NOCc1nccc(NC(=O)Cc2ccccc2)n1)c1ccccc1 [Example 81]
log p [2]: 2.84^[b]

Cn1cncc1C(=NOCc1cccc(N)n1)c1cccs1 [Example 423]
log p [3]: 0.08^[b]

CCCCCOC(=O)Nc1cccc(CON=C(c2ccccc2)c2ocnc2C)n1 (single isomer, unassigned) [Example 319]
log p [2]: 4.54^[b]

CCCCCOC(=O)Nc1nc(CON=C(c2ccsc2)c2cncn2C)cs1 (single isomer, unassigned) [Example 461]
log p [3]: 2.22^[b]

CCCCCOC(=O)Nc1nc(CON=C(c2ncc(C(F)(F)F)cc2Cl)c2ncnn2C)cs1 [Example 480]
log p [3]: 3.94^[b]

CC(C)CC(=O)Nc1cccc(CON=C(c2cccs2)c2ncnn2C)n1 [Example 396]
log p (HPLC, method [a]: pH 2.3 with 0.1% phosphoric acid and acetonitrile as eluent): 2.78^[a];
log p [2]: 2.78^[b]

Cn1ccnc1C(=NOCc1cccc(N2C(=O)c3ccccc3C2=O)n1)c1cccc(F)c1 [Example 227]
log p [1]: 2.13^[b]

Cn1ccnc1C(=NO)c1ccccc1 [N-hydroxy-1-(1-methyl-1H-imidazol-2-yl)-1-phenylmethanimine]
chromatographic logP (HCOOH (formic acid)): 0.24

CCCCCOC(=O)Nc1nc(CON=C(c2cccs2)c2cncn2C)cs1 (single isomer, unassigned) [Example 459]
log p [3]: 2.16^[b]

Cc1ncoc1C(=NOCc1csc(N)n1)c1ccccc1 [Example 351, 4-[({[(4-methyl-1,3-oxazol-5-yl)(phenyl)methylene]amino-}oxy)methyl]-1,3-thiazol-2-amine]
log p [2]: 1.46^[b]

COCC(=O)Nc1ccnc(CON=C(c2ccccc2)c2nccn2C)n1 [Example 53]
log p [2]: 1.2^[b]

Cn1cncc1C(=NOCc1cccc(N2C(=O)c3ccccc3C2=O)n1)c1ccccc1 [Example 90]
log p [2]: 1.81^[b]

Cn1nncc1C(=NOCc1cccc(NC(=O)C(C)(C)C)n1)c1ccccc1 [Example 66]
log p [2]: 3.11^[b]

CCCCOC(=O)Nc1cccc(CON=C(c2ccccc2)c2ncnn2C)n1 [Example 91]
log p [2]: 3.53^[b]

COc1cccc(CCC(=O)Nc2cccc(CON=C(c3ccccc3)c3ncnn3C)n2)c1 [Example 298]
log p [2]: 3.25^[b]

Cc1ccc(C(=NOCc2cccc(NC(=O)C(C)(C)C)n2)c2ncnn2C)cc1 [Example 19]
log p [2]: 3.31^[b]

O=C(c1ccsc1)c1snc(Cl)c1Cl [(3,4-dichloro-1,2-thiazol-5-yl)(3-thienyl)methanone]
chromatographic logP (HCOOH (formic acid)): 3.31

CCCCCOC(=O)Nc1ccnc(CON=C(c2ccccc2)c2nccn2C)n1 [Example 55]
log p [2]: 2.28^[b]

COC(C(=O)Nc1cccc(CON=C(c2cccc(F)c2)c2nccn2C)n1)c1ccccc1 (stereo not shown) [Example 349]
log p [2]: 2.42^[b]

CC(C)C(=O)Nc1nc(CON=C(c2ccccc2)c2cncn2C)cs1 [Example 119]
log p [2]: 1.63^[b]

CCC(C)COC(=O)Nc1cccc(CON=C(c2cccc(F)c2)c2nccn2C)n1 (stereo not shown) [Example 344]
log p [2]: 2.82^[b]

CCC(C)CC(=O)Nc1cccc(CON=C(c2cccc(F)c2)c2nccn2C)n1 (stereo not shown) [Example 288]
log p [2]: 2.77^[b]

COCCOCC(=O)Nc1ccnc(CON=C(c2ccccc2)c2nccn2C)n1 [Example 56]
log p [2]: 1.34^[b]

CCCCCOC(=O)Nc1nc(CON=C(c2cccs2)c2cncn2C)cs1 (single isomer, unassigned) [Example 460]
log p [3]: 2.25^[b]

Cn1ccnc1C(=NOCc1cccc(NC(=O)CSc2ccccc2)n1)c1cccc(F)c1 [Example 286]
log p [2]: 2.82^[b]

C=CCC(=O)Nc1cccc(CON=C(c2ccccc2)c2ncnn2C)n1 [Example 314]
log p [2]: 2.51^[b]

CCCCCOC(=O)Nc1cccc(CON=C(c2ccccc2)c2csc(C)n2)n1 [Example 195]
log p [1]: 4.92^[b]

Cn1ccnc1C(=O)c1ccccc1 [(1-methyl-1H-imidazol-2-yl)(phenyl)methanone]
chromatographic logP (HCOOH (formic acid)): 1.38

COc1ccc(C(=NOCc2cccc(NC(=O)C3CC3)n2)c2ncc(C(F)(F)F)cc2Cl)cc1Br [Example 360]
log p [2]: 4.54^[b]

Cn1ccnc1C(=NOCc1cccc(NC(=O)OCC(Cl)(Cl)Cl)n1)c1cccc(F)c1 [Example 347]
log p [2]: 2.73^[b]

CCC(C)CC(=O)Nc1cccc(CON=C(c2ccccc2)c2nccn2C)n1 (stereo not shown) [Example 262]
log p [1]: 2.54^[b]

Cn1ncnc1C(=NOCc1cccc(NC(=O)Cc2ccccc2)n1)c1ncc(C(F)(F)F)cc1Cl [Example 467]
log p [3]: 3.46^[b]

Cn1nc(C(=NOCc2cccc(NC(=O)CCc3ccccc3)n2)c2ccccc2)n(C)c1=O [Example 150]
log p [1]: 3.19^[b]

COC(=O)c1ccc(C(F)(F)F)nc1CON=C(c1ccccn1)c1ccccn1 [Example 485]
log p (HPLC method [a]: pH 2.3, 0.1% phosphoric acid and acetonitrile as eluent, EEC directive 79/831 Annex V.A8): 2.48^[a]

C#CCCOC(=O)Nc1cccc(CON=C(c2ccccc2)c2nccn2C)n1 [Example 332]
log p [2]: 1.78^[b]

COC(=O)CCCC(=O)Nc1cccc(CON=C(c2ccc(C)cc2)c2ncnn2C)n1 [Example 42]
log p [2]: 2.68^[b]

Cc1ncoc1C(=NOCc1cccc(N2C(=O)c3ccccc3C2=O)n1)c1ccccc1 [Example 352, 2-{6-[({[(4-methyl-1,3-oxazol-5-yl)(phenyl)methylene]amino}oxy)methyl]pyridin-2-yl}-1H-isoindole-1,3(2H)-dione]
chromatographic logP (reversed phase HPLC column, pH 2.7): 3.25

CC(C)C(=O)Nc1cccc(CON=C(c2ccsc2)c2cncn2C)n1 [Example 439]
log p [3]: 1.5^[b]

CCC(C(=O)Nc1cccc(CON=C(c2ccccc2)c2cncn2C)n1)c1ccccc1 (stereo not shown) [Example 259]
log p [1]: 2.3^[b]

Cn1nc(C(F)(F)F)nc1C(=NOCc1cccc(NC(=O)C(C)(C)C)n1)c1ccccc1 [Example 178]
log p [1]: 4.31^[b]

Cn1ncnc1C(=NOCc1csc(NC(=O)CCc2ccccc2)n1)c1ncc(C(F)(F)F)cc1Cl [Example 483]
log p [3]: 3.51^[b]

CC(C)CC(=O)Nc1cccc(CON=C(c2ccsc2)c2cncn2C)n1 [Example 442]
log p [3]: 1.7^[b]

Cn1ncnc1C(=NOCc1nccc(N)n1)c1ncc(C(F)(F)F)cc1Cl [Example 472]
log p [3]: 1.2^[b]

Cc1nc(C(=NOCc2cccc(N)n2)c2ccccc2)cs1 (single isomer, unassigned) [Example 169]
log p [1]: 1.7^[b]

COCCOC(=O)Nc1cccc(CON=C(c2cccc(F)c2)c2nccn2C)n1 [Example 341]
log p [2]: 1.66^[b]

CCCCCOC(=O)Nc1cccc(CON=C(c2ccccc2C)c2ncnn2C)n1 [Example 45]
log p [2]: 4.06^[b]

Cn1ccnc1C(=NOCc1cccc(NC(=O)Cc2ccccc2F)n1)c1cccc(F)c1 [Example 276]
log p [1]: 2.59^[b]

Cn1ncnc1C(=NOCc1cccc(NC(=O)C(C)(C)C)n1)c1ccccc1 [Example 26]
log p [2]: 2.98^[b]

Cn1ncnc1C(=NOCc1cccc(NC(=O)C2CC2c2ccccc2)n1)c1ccccc1 (stereo not shown) [Example 304]
log p [2]: 3.61^[b]

CC(C)CC(=O)Nc1cccc(CON=C(c2ccccc2)c2cncn2C)n1 [Example 121]
log p [2]: 1.84^[b]

Cc1ccc(C(=NOCc2nccc(NC(=O)C(C)(C)C)n2)c2ncnn2C)cc1 [Example 39]
log p [2]: 3.02^[b]

Cn1ncnc1C(=NOCc1csc(NC(=O)Cc2ccccc2)n1)c1ncc(C(F)(F)F)cc1Cl [Example 482]
log p [3]: 3.27^[b]

CC(C)CC(=O)Nc1ccnc(CON=C(c2cccs2)c2nccn2C)n1 [Example 389]
log p [2]: 1.59^[b]

CCCCCC(=O)Nc1ccnc(CON=C(c2ncc(C(F)(F)F)cc2Cl)c2ncnn2C)n1 [Example 474]
log p [3]: 3.51^[b]

Cn1c(C(=NOCc2cccc(NC(=O)Cc3ccccc3)n2)c2ccccc2)nnc1C(F)(F)F [Example 200]
log p [1]: 3.6^[b]

Cc1nnsc1C(=NOCc1ccccn1)c1ccccc1 [Example 1]
log p (HPLC on reversed phase columns, method [a]: pH 2.3 with 0.1% phosphoric acid and acetonitrile as eluent): 2.36^[a]

Cn1cccc1C(=NOCc1cccc(N2C(=O)c3ccccc3C2=O)n1)c1ccc(Cl)nc1 [Example 463]
log p [3]: 3.78^[b]

CCCC(=O)Nc1cccc(CON=C(c2ccccc2)c2cncn2C)n1 [Example 256]
log p [1]: 1.6^[b]

CCCCC#Cc1cccc(CON=C(c2ccccc2)c2nncn2C)n1 [Example 354]
log p [2]: 3.23^[b]

Cn1cncc1C(=NOCc1csc(N)n1)c1ccccc1 [Example 111]
log p [2]: 0.69^[b]

CC(C)C(=O)Nc1nc(CON=C(c2cccs2)c2cncn2C)cs1 [Example 433]
log p [3]: 1.53^[b]

CCCCCC(=O)Nc1ccnc(CON=C(c2cccs2)c2ncnn2C)n1 [Example 405]
log p [2]: 3^[b]

COc1ccc(C(=NOCc2cccc(NC(=O)C(C)C)n2)c2ncc(C(F)(F)F)cc2Cl)cc1Br [Example 367]
log p [2]: 4.73^[b]

CC(C)C(=O)Nc1cccc(CON=C(c2cccs2)c2nccn2C)n1 [Example 415]
log p [3]: 1.65^[b]

Cn1ccnc1C(=NOCc1cccc(NC(=O)Cc2ccccc2Cl)n1)c1cccc(F)c1 [Example 291]
log p [2]: 2.8^[b]
